Drawing on patent publication US20220002314A1 (priority 2018, published 2022), this text covers Ki for 19 compounds.

The target of one experiment is Human μ-opioid receptor (Homo sapiens, UniProt P35372). Kind of experiment: biochemical. The experiment is classed as binding.
Experiment [1] concerns the target Human α2δ-1 subunit of Cav2.2 calcium channel (Homo sapiens, UniProt P54289). Kind of experiment: biochemical. The experiment is classed as binding.

Each structure is given as a SMILES string. Where two headings read alike, the source gives them in different places. Some results are limits rather than exact numbers.

Human μ-opioid receptor, sequence (P35372 whole entry): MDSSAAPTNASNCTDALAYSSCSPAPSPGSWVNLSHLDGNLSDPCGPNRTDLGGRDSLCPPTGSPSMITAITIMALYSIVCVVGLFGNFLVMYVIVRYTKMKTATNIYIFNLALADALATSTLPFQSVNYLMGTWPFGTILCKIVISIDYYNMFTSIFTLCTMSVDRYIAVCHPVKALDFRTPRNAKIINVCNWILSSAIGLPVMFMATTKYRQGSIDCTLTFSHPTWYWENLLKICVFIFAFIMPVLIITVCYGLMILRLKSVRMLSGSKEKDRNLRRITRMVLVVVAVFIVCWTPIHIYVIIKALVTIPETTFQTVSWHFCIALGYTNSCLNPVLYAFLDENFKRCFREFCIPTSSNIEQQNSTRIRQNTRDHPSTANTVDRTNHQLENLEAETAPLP
Human α2δ-1 subunit of Cav2.2 calcium channel, sequence (P54289 25-1103): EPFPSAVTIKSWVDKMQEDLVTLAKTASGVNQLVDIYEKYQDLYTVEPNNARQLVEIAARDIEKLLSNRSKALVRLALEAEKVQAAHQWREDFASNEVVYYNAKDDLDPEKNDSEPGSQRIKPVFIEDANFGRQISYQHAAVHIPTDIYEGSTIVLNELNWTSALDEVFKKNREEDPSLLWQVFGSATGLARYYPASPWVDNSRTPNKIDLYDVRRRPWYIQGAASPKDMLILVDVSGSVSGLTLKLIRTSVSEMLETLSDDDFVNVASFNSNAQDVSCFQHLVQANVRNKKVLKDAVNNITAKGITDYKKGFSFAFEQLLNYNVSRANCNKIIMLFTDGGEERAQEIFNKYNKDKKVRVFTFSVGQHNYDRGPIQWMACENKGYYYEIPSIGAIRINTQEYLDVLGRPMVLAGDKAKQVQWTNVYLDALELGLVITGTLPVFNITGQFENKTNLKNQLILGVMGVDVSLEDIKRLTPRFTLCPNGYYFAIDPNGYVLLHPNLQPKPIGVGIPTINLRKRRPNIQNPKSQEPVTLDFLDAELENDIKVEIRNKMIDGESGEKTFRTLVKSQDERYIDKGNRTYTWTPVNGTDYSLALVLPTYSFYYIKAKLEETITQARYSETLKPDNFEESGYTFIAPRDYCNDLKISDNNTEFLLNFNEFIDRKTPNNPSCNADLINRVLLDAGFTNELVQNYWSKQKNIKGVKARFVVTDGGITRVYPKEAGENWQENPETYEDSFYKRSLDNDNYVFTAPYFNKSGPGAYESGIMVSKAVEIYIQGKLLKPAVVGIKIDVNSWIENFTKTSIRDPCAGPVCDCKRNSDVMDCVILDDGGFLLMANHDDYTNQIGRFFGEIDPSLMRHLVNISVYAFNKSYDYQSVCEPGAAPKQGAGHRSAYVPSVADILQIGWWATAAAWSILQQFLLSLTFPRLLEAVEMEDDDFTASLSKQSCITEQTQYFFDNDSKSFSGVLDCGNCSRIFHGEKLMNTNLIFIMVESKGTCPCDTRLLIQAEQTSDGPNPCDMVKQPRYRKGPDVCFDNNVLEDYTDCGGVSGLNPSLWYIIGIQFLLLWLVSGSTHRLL

In the case of `CCC[C@H](c1nc2ccc(F)c(F)c2c(=O)n1CC)N1CCN[C@@H](C)C1` [Example 218, 3-ethyl-5,6-difluoro-2-((R)-1-((S)-3-methylpiperazin-1-yl)butyl)quinazolin-4(3H)-one], the Ki is 100 to 500 nM on Human μ-opioid receptor and less than 500 nM in experiment [1].

As to `CCC[C@H](c1nc2ccc(Br)cc2c(=O)n1CC)N1CCN[C@@H](COC)C1` [Example 219, 6-bromo-3-ethyl-2-((R)-1-((R)-3-(methoxymethyl)piperazin-1-yl)butyl)quinazolin-4(3H)-one], the results for the Ki (on Human μ-opioid receptor; in experiment [1]) were greater than 500 nM and less than 500 nM, respectively.

Take `CCC[C@@H](c1nc2ccc(Br)cc2c(=O)n1CC)N1CCN[C@@H](COC)C1` [Example 220, 6-bromo-3-ethyl-2-((S)-1-((R)-3-(methoxymethyl)piperazin-1-yl)butyl)quinazolin-4(3H)-one]: the Ki on Human μ-opioid receptor is greater than 500 nM; in experiment [1], greater than 5000 nM.

On to `CCC[C@H](c1nc2cc(F)c(Cl)cc2c(=O)n1C)N1CCN[C@@H](C)C1` [Example 221, 6-chloro-7-fluoro-3-methyl-2-((R)-1-((S)-3-methylpiperazin-1-yl)butyl)quinazolin-4(3H)-one], for which the Ki on Human μ-opioid receptor is less than 100 nM; in experiment [1] it was 500 to 5000 nM.

Turning to `CCC[C@H](c1nc2ccc(F)c(F)c2c(=O)n1C)N1CCN[C@@H](C)C1` [Example 222, 5,6-difluoro-3-methyl-2-((R)-1-((S)-3-methylpiperazin-1-yl)butyl)quinazolin-4(3H)-one], the Ki on Human μ-opioid receptor (read-out: μ-binding) was greater than 500 nM; in experiment [1] (read-out: α2δ-1 binding) it was 500 to 5000 nM.

Regarding `CCC[C@H](c1nc2c(F)cc(Cl)cc2c(=O)n1C)N1CCN[C@@H](C)C1` [Example 223, 6-chloro-8-fluoro-3-methyl-2-((R)-1-((S)-3-methylpiperazin-1-yl)butyl)quinazolin-4(3H)-one], the values for the Ki (at Human μ-opioid receptor; in experiment [1]) were less than 100 nM and greater than 5000 nM, respectively.

On to `CCC[C@H](c1nc2ccc(Br)cc2c(=O)n1CC)N1CCNC(C)(C)C1` [Example 224, (R)-6-bromo-2-(1-(3,3-dimethylpiperazin-1-yl)butyl)-3-ethylquinazolin-4(3H)-one], for which the Ki on Human μ-opioid receptor was less than 100 nM; in experiment [1], greater than 5000 nM.

As for `CCC[C@H](c1nc2c(F)cc(F)cc2c(=O)n1C)N1CCN[C@@H](C)C1` [Example 225, 6,8-difluoro-3-methyl-2-((R)-1-((S)-3-methylpiperazin-1-yl)butyl)quinazolin-4(3H)-one], the Ki on Human μ-opioid receptor lay within 100 to 500 nM; in experiment [1] it was 500 to 5000 nM.

As to `CCC[C@H](c1nc2c(F)cc(F)c(F)c2c(=O)n1CC)N1CCN[C@@H](C)C1` [Example 226, 3-ethyl-5,6,8-trifluoro-2-((R)-1-((S)-3-methylpiperazin-1-yl)butyl)quinazolin-4(3H)-one], the Ki at Human μ-opioid receptor fell in the range of 100 to 500 nM; in experiment [1], 500 to 5000 nM.

`CCC[C@@H](c1nc2ccc(Br)cc2c(=O)n1CC)N1C[C@H](C)N[C@@H](C)C1` [Example 227, 6-Bromo-2-((S)-1-((3S,5S)-3,5-dimethylpiperazin-1-yl)butyl)-3-ethylquinazolin-4(3H)-one]: the Ki at Human μ-opioid receptor was greater than 500 nM; in experiment [1], greater than 5000 nM.

As for `CCC[C@H](c1nc2ccc(Br)cc2c(=O)n1CC)N1C[C@H](C)N[C@@H](C)C1` [Example 228, 6-Bromo-2-((R)-1-((3S,5S)-3,5-dimethylpiperazin-1-yl)butyl)-3-ethylquinazolin-4(3H)-one], the Ki at Human μ-opioid receptor is less than 100 nM; in experiment [1] it was greater than 5000 nM.

Take `CCC[C@H](c1nc2ccc(Cl)cc2c(=O)n1CC)N1CCN[C@H](CF)C1` [Example 229, 6-Chloro-3-ethyl-2-((R)-1-((S)-3-(fluoromethyl)piperazin-1-yl)butyl)quinazolin-4(3H)-one]: the Ki at Human μ-opioid receptor is greater than 500 nM; in experiment [1], less than 500 nM.

For `CCC[C@H](c1nc2ccc(Cl)cc2c(=O)n1CC)N1CCN[C@@H](CF)C1` [Example 230, 6-chloro-3-ethyl-2-((R)-1-((R)-3-(fluoromethyl)piperazin-1-yl)butyl)quinazolin-4(3H)-one], the Ki at Human μ-opioid receptor is greater than 500 nM; in experiment [1] it was 500 to 5000 nM.

With `CCC[C@@H](c1nc2ccc(Cl)cc2c(=O)n1CC)N1CCN[C@@H](CF)C1` [Example 231, 6-chloro-3-ethyl-2-((S)-1-((R)-3-(fluoromethyl)piperazin-1-yl)butyl)quinazolin-4(3H)-one], the values for the Ki (on Human μ-opioid receptor; in experiment [1]) were greater than 500 nM and greater than 5000 nM, respectively.

On to `CCC[C@@H](c1nc2ccc(Cl)cc2c(=O)n1CC)N1CCN[C@H](CF)C1` [Example 232, 6-chloro-3-ethyl-2-((S)-1-((S)-3-(fluoromethyl)piperazin-1-yl)butyl)quinazolin-4(3H)-one], for which the Ki on Human μ-opioid receptor is greater than 500 nM; in experiment [1], greater than 5000 nM.

For `CCC[C@H](c1nc2cnc(C(F)(F)F)cc2c(=O)n1CC)N1CCN[C@H](C)C1` [Example 233, 3-Ethyl-2-((R)-1-((R)-3-methylpiperazin-1-yl)butyl)-6-(trifluoromethyl)pyrido[3,4-d]pyrimidin-4(3H)-one], the Ki is greater than 500 nM at Human μ-opioid receptor and less than 500 nM in experiment [1].

With `CCC[C@H](c1nc2cnc(C(F)(F)F)cc2c(=O)n1CC)N1CCN[C@@H](C)C1` [Example 234, 3-ethyl-2-((R)-1-((S)-3-methylpiperazin-1-yl)butyl)-6-(trifluoromethyl)pyrido[3,4-d]pyrimidin-4(3H)-one], the Ki was greater than 500 nM at Human μ-opioid receptor and less than 500 nM in experiment [1].

Take `CCC[C@@H](c1nc2cnc(C(F)(F)F)cc2c(=O)n1CC)N1CCN[C@@H](C)C1` [Example 235, 3-ethyl-2-((S)-1-((S)-3-methylpiperazin-1-yl)butyl)-6-(trifluoromethyl)pyrido[3,4-d]pyrimidin-4(3H)-one]: the Ki was greater than 500 nM on Human μ-opioid receptor and greater than 5000 nM in experiment [1].

Turning to `CCC[C@H](c1nc2ccc(C(NC)c3ccccc3)cc2c(=O)n1CC)N1C[C@@H](C)N[C@@H](C)C1` (stereo partly drawn) [Example 236, 2-((R)-1-((3S,5R)-3,5-Dimethylpiperazin-1-yl)butyl)-3-ethyl-6-((methylamino)(phenyl)methyl)quinazolin-4(3H)-one], the Ki is greater than 500 nM on Human μ-opioid receptor and less than 500 nM in experiment [1].
